These are literature values, as cited in patent publication US7858659B2, “Redox therapy for tumors” (priority 2003, dated 2010).

By Solubility is commonly meant the concentration that dissolves in the medium under given conditions.

For data set [1], the system named is A-427 and A-172. As to conditions: various cancer cell lines, such as A-427 and A-172; cited from earlier work.
Data set [2] concerns normal human bronchial fibroblasts and human bronchial epithelial cells. As to conditions: cited from earlier work.
In data set [3] the test system is malignant cells. As to conditions: Table 1; BSO: [Kito]; cited from earlier work.
Data set [4] relates to malignant cells. As to conditions: cited from earlier work; for Effective Concentration in vitro: Example 4 table; for Concentration: Table 1.
The test system of data set [5] is adults. As to conditions: cited from earlier work.
For data set [6] the following is noted: Example 4 table; cited from earlier work.
The subject of data set [7] is malignant cells. As to conditions: BSO by itself; Dai et al. 1999; cited from earlier work.
Data set [8] relates to neuroblastoma cells. To be noted: Nicole et al. 1998; cited from earlier work.
For data set [9] the following is noted: cited from earlier work; for Solubility: Example 4 table.
Data set [10] relates to mice. As to conditions: mouse, in vivo; cited from earlier work.
Data set [11] relates to rats. As to conditions: cited from earlier work.
In data set [12] the test system is U937 cancer cells. To be noted: Lizard et al. 1998; cited from earlier work.
Data set [13] has as its system Jurkat T-cell leukemia cells. As to conditions: Sen et al. 1999; cited from earlier work.
Data set [14] concerns normal lymphocytes. As to conditions: Sen et al. 1999; cited from earlier work.
For data set [15], the system named is prostate cancer cell lines. As to conditions: green tea phenols; cited from earlier work.
Data set [16] has as its target T1, glutathione reductase (GR) (Mus musculus, UniProt P47791).
T1 construct: recovery of enzyme activity in exponentially growing murine leukemia (L1210) cells treated with 1,3-bis(2-chloroethyl)-1-nitrosourea
T1 sequence (P47791 27-500): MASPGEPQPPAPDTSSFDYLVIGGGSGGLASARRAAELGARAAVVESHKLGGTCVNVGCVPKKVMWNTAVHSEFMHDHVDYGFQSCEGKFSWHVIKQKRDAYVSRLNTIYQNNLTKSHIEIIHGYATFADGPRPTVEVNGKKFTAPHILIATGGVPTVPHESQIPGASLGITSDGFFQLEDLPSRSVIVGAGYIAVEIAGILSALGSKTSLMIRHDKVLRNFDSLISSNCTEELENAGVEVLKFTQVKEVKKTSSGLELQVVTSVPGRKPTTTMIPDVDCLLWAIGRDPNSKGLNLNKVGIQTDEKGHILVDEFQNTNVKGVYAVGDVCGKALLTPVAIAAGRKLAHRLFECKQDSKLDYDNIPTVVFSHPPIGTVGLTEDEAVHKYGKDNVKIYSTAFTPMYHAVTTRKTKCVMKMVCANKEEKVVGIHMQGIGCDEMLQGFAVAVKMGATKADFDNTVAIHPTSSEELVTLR
To be noted: Cohen 1988, cited from earlier work.

Data set [17] has as its system mice/rats. As to conditions: cited from earlier work.

Structures are written as SMILES. Values after ≈ are worked out from the molar mass of the structure shown. Read-outs that look alike come from different tables or passages of the source.

For the compound `C=CC=O` [acrolein], the cytotoxicity entry in data set [1] is recorded as “induced cytotoxicity”. For the same compound, the “toxicity to normal cells” value in [2] is “highly toxic”.
As to `CCCCS(=N)(=O)CCC(N)C(=O)O` (stereo not drawn) [BSO, buthionine sulfoximine], the values for the apoptosis entry in [3], in data set [7] and in data set [8] were “Enhancement [Kito]”, “did not induce significant apoptosis” and “induced apoptosis”, respectively. In addition, the “Effective Concentration in vitro” value in data set [4] is 100 µM. Besides, in [4] (disulfiram: [Cen]), the Concentration is 10 to 25 µM. In addition, the “Toxicity: nausea/vomiting” value in data set [5] ([Bailey]) is recorded as “occasional”. The figures for the Toxicity in [6] and in data set [10] were 10,000 microM and 9.6 g/kg (mice) →, respectively. In addition, the “decrease in [GSH] in the cell” value in [7] is on record as 70%. Besides, the “decrease of GSH content” value in [8] is 98%. The Solubility entry in [9] was “soluble”. Also, in data set [9] (Table 1, in words), the “Solubility [Merck]” value was “Soluble”.
For the compound `CCN(CC)C(=S)SSC(=S)N(CC)CC` [Disulfiram], the Toxicity in data set [5] (adults) is recorded as 3 g (adults); in data set [6], 10,000 microM. The “LD50 [Merck]” value in data set [11] is 8600 mg/kg (rats). Further, in data set [9], the Solubility was 2,000 microM. Besides, the “Solubility [Merck]” value in data set [9] (Table 1) is 0.02 g/100 ml.
With `CC(C)CCC[C@@H](C)[C@H]1CC[C@H]2[C@@H]3C(=O)C=C4C[C@@H](O)CC[C@]4(C)[C@H]3CC[C@]12C` [7-ketocholesterol], the apoptosis entry in [12] is listed as “induced apoptosis”.
As to `O=C(O)CCCCC1CCSS1` (stereo not drawn) [α-lipoic acid], the figures for the apoptosis entry in [13] and in [14] were “underwent apoptosis” and “did not”, respectively.
Take `O=C(O[C@@H]1Cc2c(O)cc(O)cc2O[C@@H]1c1cc(O)c(O)c(O)c1)c1cc(O)c(O)c(O)c1` [(−)-epigallocatechin-3-gallate]: the apoptosis result in [15] is on record as “induced apoptosis”.
Take `O=NN(CCCl)C(=O)NCCCl` [Carmustine, N,N′-bis(2-chloroethyl)-N-nitrosourea]: the apoptosis entry in [3] is recorded as “Induction”. In addition, the “Effective Concentration in vitro” value in [4] was 0.05 µM. Also, the Concentration in [4] ([Cohen & Duval]) was 50 ng/mL. Moreover, in data set [16] (12 hours, de novo synthesis), the “activity of GR restored” value was 50%. Also, in data set [16] (24 hours, de novo synthesis), the GR restored was 70%. Also, in [16] (only carmustine present), the “concentration with which GR is inhibited” value was 10 µM. Besides, in [16] (with 10 μM), the “time within which GR is inhibited” value is “½”. For the same compound, in data set [9], the Solubility is 40 µM (≈ 8.56 µg/mL). In addition, the “Solubility [Merck]” value in data set [9] (Table 1) is 4 mg/L (≈ 18.7 µM). In addition, the “LD50 [Merck]” value in data set [17] was 25 to 30 mg/kg.
